Experimental data taken from patent publication US20260207718A1, “METHODS FOR TREATING LATE ONSET POMPE DISEASE IN PEDIATRIC PATIENTS” (Amicus Therapeutics, Inc., priority 2022, published 2026).
Read-outs that look alike come from different tables or passages of the source.

Tests used:
[1] = ATB200-04 trial: population PK exposure matching of adolescents to adults; type: in vivo, human; conditions: for AUC(0-t) / Cmax: human, plasma
Source text: The ATB200-04 trial seeks to evaluate the safety and tolerability of cipaglucosidase alfa/miglustat co-administration.
Subjects have scheduled PK assessments at Day 1, Week 26, and Week 52 for plasma total GAA protein and miglustat.
Population PK parameters include clearance (CL) and volume of distribution (V), estimated from total GAA protein concentrations and miglustat concentrations in plasma.
Methods for Exposure Matching. Pediatric PK data from both clinical trials and expanded access programs were used for exposure matching to adult PK data. […] The previous base population PK models from cipaglucosidase alfa-atga and miglustat were rerun with the updated dataset. To account for longitudinal changes in body size for pediatric patients, the time-varying body weight was used to estimate the effects of body size on PK parameters in the population PK models. The effect of age at baseline on clearance was also evaluated in the PK models. Individual AUC0-24 and Cmax of cipaglucosidase alfa and miglustat were predicted from the PK empirical Bayes estimates (EBEs). The time-varying body weight and baseline age in pediatrics were used in the exposure prediction. PK exposures (AUC0-24 and Cmax) were predicted for each PK visit during the study; Day 1-baseline, Week 26, and Week 52. Additionally, there were unscheduled PK visits for some subjects.
Results for Adolescent Subjects. […] The dose may have been adjusted at a later visit for exposure matching. It should be noted however, that in the early stage of the study, all subjects were started at 20 mg/kg to evaluate safety.

[2] = system: pediatric subjects with late-onset Pompe disease; assay: ATB200-04 trial: safety in pediatric subjects with LOPD; type: in vivo, human; conditions: ERT-experienced subject, Cohort 2
Source text: This study includes subjects with Pompe disease except classic IOPD.
Safety assessments include monitoring of adverse events (AEs), clinical laboratory tests (chemistry, hematology, and urinalysis), physical examinations, vital signs, 12-lead electrocardiogram (ECGs), and detection of cipaglucosidase alfa antibodies.

**Q.** For `CCCCN1C[C@H](O)[C@@H](O)[C@H](O)[C@H]1CO` [miglustat, (2R,3R,4R,5S)-1-butyl-2-(hydroxymethyl) piperidine-3,4,5-triol], which “predicted AUC0-24 and Cmax for adolescents relative to adult 5th and 95th percentile range” value ([1]; adults N=100, adolescents N=8) is on record?
**A.** for most adolescents are within the adult 5th and 95th percentile range

**Q.** What about the AUC(0-t) ([1]; oral, miglustat, predicted, Adults N=100, read-out: AUC0-24, Geo Mean) of the same molecule?
**A.** 20400 ng·h/mL

**Q.** And the AUC(0-t) ([1]; oral, miglustat, predicted, Adults N=100, read-out: AUC0-24, Mean)?
**A.** 20700 ng·h/mL

**Q.** And the AUC(0-t) ([1]; oral, miglustat, predicted, Adults N=100, read-out: AUC0-24, Median)?
**A.** 20700 ng·h/mL

**Q.** And the AUC(0-t) ([1]; oral, miglustat, predicted, Adults N=100, read-out: AUC0-24, P5)?
**A.** 15200 ng·h/mL

**Q.** And the AUC(0-t) ([1]; oral, miglustat, predicted, Adults N=100, read-out: AUC0-24, P95)?
**A.** 28300 ng·h/mL

**Q.** And the Cmax ([1]; oral, miglustat, predicted, Adults N=100, read-out: Cmax, Geo Mean)?
**A.** 2370 ng/mL

**Q.** And the Cmax ([1]; oral, miglustat, predicted, Adults N=100, read-out: Cmax, Mean)?
**A.** 2420 ng/mL

**Q.** What about the Cmax ([1]; oral, miglustat, predicted, Adults N=100, read-out: Cmax, Median) of the same molecule?
**A.** 2370 ng/mL

**Q.** And the Cmax ([1]; oral, miglustat, predicted, Adults N=100, read-out: Cmax, P5)?
**A.** 1720 ng/mL

**Q.** What about the Cmax ([1]; oral, miglustat, predicted, Adults N=100, read-out: Cmax, P95) of the same molecule?
**A.** 3280 ng/mL

**Q.** And the AUC(0-t) ([1]; po, 195 mg, adolescent Subject 5, 195 mg, Week 52, 43.7 kg, read-out: individual predicted AUC0-24)?
**A.** 21000 ng·h/mL

**Q.** What about the Cmax ([1]; po, 195 mg, adolescent Subject 5, 195 mg, Week 52, 43.7 kg, read-out: individual predicted Cmax) of the same molecule?
**A.** 2330 ng/mL

**Q.** And the AUC(0-t) ([1]; po, 195 mg, adolescent Subject 6, 195 mg, Week 52, 36.5 kg, read-out: individual predicted AUC0-24)?
**A.** 13500 ng·h/mL

**Q.** What about the Cmax ([1]; po, 195 mg, adolescent Subject 6, 195 mg, Week 52, 36.5 kg, read-out: individual predicted Cmax) of the same molecule?
**A.** 1700 ng/mL

**Q.** What about the AUC(0-t) ([1]; po, 260 mg, adolescent Subject 1, 260 mg, Week 52, 77.9 kg, read-out: individual predicted AUC0-24) of the same molecule?
**A.** 20400 ng·h/mL

**Q.** And the Cmax ([1]; po, 260 mg, adolescent Subject 1, 260 mg, Week 52, 77.9 kg, read-out: individual predicted Cmax)?
**A.** 2960 ng/mL

**Q.** What about the AUC(0-t) ([1]; po, 260 mg, adolescent Subject 2, 260 mg, Week 52, 83.8 kg, read-out: individual predicted AUC0-24) of the same molecule?
**A.** 17100 ng·h/mL

**Q.** And the Cmax ([1]; po, 260 mg, adolescent Subject 2, 260 mg, Week 52, 83.8 kg, read-out: individual predicted Cmax)?
**A.** 1910 ng/mL

**Q.** And the AUC(0-t) ([1]; po, 260 mg, adolescent Subject 3, 260 mg, Week 52, 64.6 kg, read-out: individual predicted AUC0-24)?
**A.** 20300 ng·h/mL

**Q.** And the Cmax ([1]; po, 260 mg, adolescent Subject 3, 260 mg, Week 52, 64.6 kg, read-out: individual predicted Cmax)?
**A.** 2170 ng/mL

**Q.** What about the AUC(0-t) ([1]; po, 260 mg, adolescent Subject 4, 260 mg, Week 64, 53.3 kg, read-out: individual predicted AUC0-24) of the same molecule?
**A.** 22300 ng·h/mL

**Q.** And the Cmax ([1]; po, 260 mg, adolescent Subject 4, 260 mg, Week 64, 53.3 kg, read-out: individual predicted Cmax)?
**A.** 2590 ng/mL

**Q.** And the AUC(0-t) ([1]; po, 260 mg, adolescent Subject 7, 260 mg, Week 52, 60.3 kg, read-out: individual predicted AUC0-24)?
**A.** 15000 ng·h/mL

**Q.** And the Cmax ([1]; po, 260 mg, adolescent Subject 7, 260 mg, Week 52, 60.3 kg, read-out: individual predicted Cmax)?
**A.** 1850 ng/mL

**Q.** What about the AUC(0-t) ([1]; po, 260 mg, adolescent Subject 8, 260 mg, Week 72, 38.5 kg, read-out: individual predicted AUC0-24) of the same molecule?
**A.** 19600 ng·h/mL

**Q.** What about the Cmax ([1]; po, 260 mg, adolescent Subject 8, 260 mg, Week 72, 38.5 kg, read-out: individual predicted Cmax) of the same molecule?
**A.** 1800 ng/mL

**Q.** And the AUC(0-t) ([1]; po, miglustat, predicted, Adolescents N=8, read-out: AUC0-24, Geo Mean)?
**A.** 18400 ng·h/mL

**Q.** And the AUC(0-t) ([1]; po, miglustat, predicted, Adolescents N=8, read-out: AUC0-24, Mean)?
**A.** 18700 ng·h/mL

**Q.** What about the AUC(0-t) ([1]; po, miglustat, predicted, Adolescents N=8, read-out: AUC0-24, Median) of the same molecule?
**A.** 20000 ng·h/mL

**Q.** What about the AUC(0-t) ([1]; po, miglustat, predicted, Adolescents N=8, read-out: AUC0-24, P5) of the same molecule?
**A.** 14100 ng·h/mL

**Q.** What about the AUC(0-t) ([1]; po, miglustat, predicted, Adolescents N=8, read-out: AUC0-24, P95) of the same molecule?
**A.** 21800 ng·h/mL

**Q.** And the Cmax ([1]; po, miglustat, predicted, Adolescents N=8, read-out: Cmax, Geo Mean)?
**A.** 2130 ng/mL

**Q.** And the Cmax ([1]; po, miglustat, predicted, Adolescents N=8, read-out: Cmax, Mean)?
**A.** 2160 ng/mL

**Q.** And the Cmax ([1]; po, miglustat, predicted, Adolescents N=8, read-out: Cmax, Median)?
**A.** 2040 ng/mL

**Q.** And the Cmax ([1]; po, miglustat, predicted, Adolescents N=8, read-out: Cmax, P5)?
**A.** 1740 ng/mL

**Q.** And the Cmax ([1]; po, miglustat, predicted, Adolescents N=8, read-out: Cmax, P95)?
**A.** 2830 ng/mL

**Q.** What about the “Cmax, geometric LSM Ratio adolescents to adults” value ([1]; miglustat, 90% CI (79.51, 101.54)) of the same molecule?
**A.** 89.85

**Q.** And the “AUC0-24, geometric LSM Ratio adolescents to adults” value ([1]; miglustat, 90% CI (80.58, 101.21))?
**A.** 90.31

**Q.** What about the “investigator-assessed relatedness of anaphylaxis event (both episodes)” value [2] of the same molecule?
**A.** unrelated
